Assay results reported in ChEMBL document CHEMBL3046424, “Growth inhibitory effects on fall armyworm Spodoptera frugiperda of some limonoids isolated from Cedrela spp. (Meliaceae)” (2000).
Converted amounts (≈) assume the structure as drawn.

Assays:
Type in all cases: functional
[1] = system: Spodoptera frugiperda; test: Insecticidal activity against Spodoptera frugiperda (fall armyworm) assessed as mean emergence at 52 ug/ml in artificial diet (reference value: 83.3 %)
[2] = system: Spodoptera frugiperda; test: Insecticidal activity against Spodoptera frugiperda (fall armyworm) assessed as mortality measured after 7 days; conditions: 168 h
[3] = system: Spodoptera frugiperda; test: Insecticidal activity against Spodoptera frugiperda (fall armyworm) assessed as mean time to pupation at 52 ug/ml in artificial diet (reference value: 22 days)
[4] = system: Spodoptera frugiperda; test: Insecticidal activity against Spodoptera frugiperda (fall armyworm) assessed as mean weight of pupae at 25 ug/ml in artificial diet (reference value: 281.5 +/- 10.3 mg)
[5] = system: Spodoptera frugiperda; test: Insecticidal activity against Spodoptera frugiperda (fall armyworm) assessed as mortality at 5 ug/ml in artificial diet measured after 7 days (reference value: 8.33%); conditions: 168 h
[6] = system: Spodoptera frugiperda; test: Insecticidal activity against Spodoptera frugiperda (fall armyworm) assessed as mean emergence at 25 ug/ml in artificial diet (reference value: 83.3 %)
[7] = system: Spodoptera frugiperda; test: Insecticidal activity against Spodoptera frugiperda (fall armyworm) assessed as mean emergence days at 5 ug/ml in artificial diet (reference value: 33 days)
[8] = system: Spodoptera frugiperda; test: Insecticidal activity against Spodoptera frugiperda (fall armyworm) assessed as mortality at 25 ug/ml in artificial diet measured after 7 days (reference value: 8.33%); conditions: 168 h
[9] = system: Spodoptera frugiperda; test: Insecticidal activity against Spodoptera frugiperda (fall armyworm) assessed as mean length at 5 ug/ml in artificial diet measured after 7 days (reference value: 0.95 +/- 0.2 cm)
[10] = system: Spodoptera frugiperda; test: Insecticidal activity against Spodoptera frugiperda (fall armyworm) assessed as mean length at 52 ug/ml in artificial diet measured after 7 days (reference value: 0.95 +/- 0.2 cm)
[11] = system: Spodoptera frugiperda; test: Insecticidal activity against Spodoptera frugiperda (fall armyworm) assessed as mean pupation at 52 ug/ml in artificial diet (reference value: 87.5 %)
[12] = system: Spodoptera frugiperda; test: Insecticidal activity against Spodoptera frugiperda (fall armyworm) assessed as mortality at 52 ug/ml in artificial diet measured after 7 days (reference value: 8.33%); conditions: 168 h
[13] = system: Spodoptera frugiperda; test: Insecticidal activity against Spodoptera frugiperda (fall armyworm) assessed as mean emergence at 5 ug/ml in artificial diet (reference value: 83.3 %)
[14] = system: Spodoptera frugiperda; test: Insecticidal activity against Spodoptera frugiperda (fall armyworm) assessed as mean time to pupation at 25 ug/ml in artificial diet (reference value: 22 days)
[15] = system: Spodoptera frugiperda; test: Insecticidal activity against Spodoptera frugiperda (fall armyworm) assessed as mean weight gain at 5 ug/ml in artificial diet measured after 7 days (reference value: 469.5 +/- 6.59 mg)
[16] = system: Spodoptera frugiperda; test: Insecticidal activity against Spodoptera frugiperda (fall armyworm) assessed as mean length at 52 ug/ml in artificial diet measured after 7 days (reference value: 28 +/- 4.1 mg)
[17] = system: Spodoptera frugiperda; test: Insecticidal activity against Spodoptera frugiperda (fall armyworm) assessed as mean weight of pupae at 52 ug/ml in artificial diet (reference value: 281.5 +/- 10.3 mg)
[18] = system: Spodoptera frugiperda; test: Insecticidal activity against Spodoptera frugiperda (fall armyworm) assessed as mean length at 25 ug/ml in artificial diet measured after 7 days (reference value: 0.95 +/- 0.2 cm)
[19] = system: Spodoptera frugiperda; test: Insecticidal activity against Spodoptera frugiperda (fall armyworm) assessed as mean weight gain at 52 ug/ml in artificial diet measured after 7 days (reference value: 75.5 +/- 8.24 mg)
[20] = system: Spodoptera frugiperda; test: Insecticidal activity against Spodoptera frugiperda (fall armyworm) assessed as mean weight of pupae at 5 ug/ml in artificial diet (reference value: 281.5 +/- 10.3 mg)
[21] = system: Spodoptera frugiperda; test: Insecticidal activity against Spodoptera frugiperda (fall armyworm) assessed as mean time to pupation at 5 ug/ml in artificial diet (reference value: 22 days)
[22] = system: Spodoptera frugiperda; test: Insecticidal activity against Spodoptera frugiperda (fall armyworm) assessed as mean weight gain at 5 ug/ml in artificial diet measured after 7 days (reference value: 75.5 +/- 8.24 mg)
[23] = system: Spodoptera frugiperda; test: Insecticidal activity against Spodoptera frugiperda (fall armyworm) assessed as mean weight gain at 25 ug/ml in artificial diet measured after 7 days (reference value: 469.5 +/- 6.59 mg)
[24] = system: Spodoptera frugiperda; test: Insecticidal activity against Spodoptera frugiperda (fall armyworm) assessed as mean weight gain at 52 ug/ml in artificial diet measured after 7 days (reference value: 469.5 +/- 6.59 mg)
[25] = system: Spodoptera frugiperda; test: Insecticidal activity against Spodoptera frugiperda (fall armyworm) assessed as mean pupation at 5 ug/ml in artificial diet (reference value: 87.5 %)
[26] = system: Spodoptera frugiperda; test: Insecticidal activity against Spodoptera frugiperda (fall armyworm) assessed as mean pupation at 25 ug/ml in artificial diet (reference value: 87.5 %)
[27] = system: Spodoptera frugiperda; test: Insecticidal activity against Spodoptera frugiperda (fall armyworm) assessed as mean weight gain at 25 ug/ml in artificial diet measured after 7 days (reference value: 75.5 +/- 8.24 mg)
[28] = system: Spodoptera frugiperda; test: Insecticidal activity against Spodoptera frugiperda (fall armyworm) assessed as mean length at 5 ug/ml in artificial diet measured after 7 days (reference value: 28 +/- 4.1 mg)
[29] = system: Spodoptera frugiperda; test: Insecticidal activity against Spodoptera frugiperda (fall armyworm) assessed as mean length at 25 ug/ml in artificial diet measured after 7 days (reference value: 28 +/- 4.1 mg)
[30] = system: Spodoptera frugiperda; test: Insecticidal activity against Spodoptera frugiperda (fall armyworm) assessed as mean emergence days at 25 ug/ml in artificial diet (reference value: 33 days)
[31] = system: Spodoptera frugiperda; test: Insecticidal activity against Spodoptera frugiperda (fall armyworm) assessed as mean weight gain at 15 ug/ml in artificial diet measured after 7 days (reference value: 75.5 +/- 8.24 mg)
[32] = system: Spodoptera frugiperda; test: Insecticidal activity against Spodoptera frugiperda (fall armyworm) assessed as mean length at 39 ug/ml in artificial diet measured after 7 days (reference value: 0.95 +/- 0.2 cm)
[33] = system: Spodoptera frugiperda; test: Insecticidal activity against Spodoptera frugiperda (fall armyworm) assessed as mean weight gain at 39 ug/ml in artificial diet measured after 7 days (reference value: 469.5 +/- 6.59 mg)
[34] = system: Spodoptera frugiperda; test: Insecticidal activity against Spodoptera frugiperda (fall armyworm) assessed as mean weight gain at 39 ug/ml in artificial diet measured after 7 days (reference value: 75.5 +/- 8.24 mg)
[35] = system: Spodoptera frugiperda; test: Insecticidal activity against Spodoptera frugiperda (fall armyworm) assessed as mean weight gain at 10 ug/ml in artificial diet measured after 7 days (reference value: 75.5 +/- 8.24 mg)
[36] = system: Spodoptera frugiperda; test: Insecticidal activity against Spodoptera frugiperda (fall armyworm) assessed as mortality at 10 ug/ml in artificial diet measured after 7 days (reference value: 8.33%); conditions: 168 h
[37] = system: Spodoptera frugiperda; test: Insecticidal activity against Spodoptera frugiperda (fall armyworm) assessed as mean length at 10 ug/ml in artificial diet measured after 7 days (reference value: 28 +/- 4.1 mg)
[38] = system: Spodoptera frugiperda; test: Insecticidal activity against Spodoptera frugiperda (fall armyworm) assessed as mean length at 15 ug/ml in artificial diet measured after 7 days (reference value: 0.95 +/- 0.2 cm)
[39] = system: Spodoptera frugiperda; test: Insecticidal activity against Spodoptera frugiperda (fall armyworm) assessed as mortality at 15 ug/ml in artificial diet measured after 7 days (reference value: 8.33%); conditions: 168 h
[40] = system: Spodoptera frugiperda; test: Insecticidal activity against Spodoptera frugiperda (fall armyworm) assessed as mean length at 10 ug/ml in artificial diet measured after 7 days (reference value: 0.95 +/- 0.2 cm)
[41] = system: Spodoptera frugiperda; test: Insecticidal activity against Spodoptera frugiperda (fall armyworm) assessed as mean length at 39 ug/ml in artificial diet measured after 7 days (reference value: 28 +/- 4.1 mg)
[42] = system: Spodoptera frugiperda; test: Insecticidal activity against Spodoptera frugiperda (fall armyworm) assessed as mortality at 39 ug/ml in artificial diet measured after 7 days (reference value: 8.33%); conditions: 168 h
[43] = system: Spodoptera frugiperda; test: Insecticidal activity against Spodoptera frugiperda (fall armyworm) assessed as mean weight gain at 10 ug/ml in artificial diet measured after 7 days (reference value: 469.5 +/- 6.59 mg)
[44] = system: Spodoptera frugiperda; test: Insecticidal activity against Spodoptera frugiperda (fall armyworm) assessed as mean weight gain at 15 ug/ml in artificial diet measured after 7 days (reference value: 469.5 +/- 6.59 mg)
[45] = system: Spodoptera frugiperda; test: Insecticidal activity against Spodoptera frugiperda (fall armyworm) assessed as mean emergence days at 52 ug/ml in artificial diet (reference value: 33 days)
[46] = system: Spodoptera frugiperda; test: Insecticidal activity against Spodoptera frugiperda (fall armyworm) assessed as mean length at 15 ug/ml in artificial diet measured after 7 days (reference value: […])

Work on CC(=O)O[C@@H]1C[C@H](O)[C@@]23CO[C@@H](O)[C@]1(C)[C@@H]2C[C@@H](O)[C@]1(C)[C@@H]3C(=O)[C@H](OC(C)=O)[C@@]2(C)[C@H](c3ccoc3)C[C@H]3O[C@]321 [TOOSENDANIN] yielded an Activity [1] of 0%, an LC50 [2] of 7 µg/mL (≈ 12.2 µM) and a Time [3] of 24 days. The Activity [4] was 45.1 mg, the mortality at 5 µg/mL [5] was 40% and the Activity [6] was 4.17%. It also gave a Time [7] of 36 days, a mortality at 25 µg/mL [8] of 70% and an Activity [9] of 0.98 cm. For the same compound, the Activity [10] was 0.57 cm, the Activity [11] was 4.17% and the mortality at 52 µg/mL [12] was 89%. For the same compound, the Activity [13] was 16.7%, the Time [14] was 24 days and the Activity [15] was 21.5 mg. The Activity [16] was 2.8 mm, the Activity [17] was 38 mg and the Activity [18] was 0.77 cm. For the same compound, the Activity [19] was 1 mg, the Activity [20] was 95 mg and the Time [21] was 23.5 days. It also gave an Activity [22] of 5.1 mg, an Activity [23] of 17 mg and an Activity [24] of 11.2 mg. The Activity [25] was 17.9%, the Activity [26] was 4.17% and the Activity [27] was 2.3 mg. It also gave an Activity [28] of 7 mm, an Activity [29] of 6.1 mm and a Time [30] of 36 days.

CC(=O)O[C@@H]1C[C@H]2C(C)(C)C(=O)C=C[C@]2(C)[C@H]2CC[C@@]3(C)[C@H](c4ccoc4)OC(=O)[C@H]4O[C@]43[C@@]21C [GEDUNIN] gave an Activity [1] of 4.17%, an LC50 [2] of 39 µg/mL (≈ 80.8 µM) and a Time [3] of 24 days. The Activity [4] was 122.4 mg, the Activity [31] was 3.6 mg and the Activity [32] was 0.25 cm. For the same compound, the mortality at 5 µg/mL [5] was 25%, the Activity [6] was 16.7% and the Activity [33] was 2.8 mg. For the same compound, the Time [7] was 33 days, the mortality at 25 µg/mL [8] was 38.3% and the Activity [9] was 0.5 cm. The Activity [34] was 2.3 mg, the Activity [35] was 4.9 mg and the Activity [10] was 0.2 cm. It also gave an Activity [11] of 4.17%, a mortality at 10 µg/mL [36] of 33.3% and an Activity [37] of 2.9 mm. It also gave a mortality at 52 µg/mL [12] of 70.8%, an Activity [13] of 17.9% and an Activity [38] of 0.35 cm. The Time [14] was 23 days, the mortality at 15 µg/mL [39] was 33.3% and the Activity [40] was 0.4 cm. The Activity [15] was 16.12 mg, the Activity [16] was 2.1 mm and the Activity [17] was 52 mg. For the same compound, the Activity [41] was 2 mm, the Activity [18] was 0.3 cm and the mortality at 39 µg/mL [42] was 48.3%. It also gave an Activity [19] of 1.9 mg, an Activity [20] of 147.9 mg and a Time [21] of 22 days. For the same compound, the Activity [22] was 6.12 mg, the Activity [23] was 3.45 mg and the Activity [43] was 4.95 mg. It also gave an Activity [44] of 3.61 mg, a Time [45] of 36 days and an Activity [24] of 2.2 mg. It also gave an Activity [25] of 20.8%, an Activity [26] of 16.7% and an Activity [27] of 3.4 mg. For the same compound, the Activity [28] was 2.6 mm, the Activity [29] was 2.1 mm and the Activity [46] was 2.6 mm. For the same compound, the Time [30] was 35 days.
